Where “and” joins values, the source holds several entries; their conditions need not be identical. Equal values may be shown once. Inconclusive results and toxic doses are left out.
Tested on: B6C3F1 mice, intracerebral ependymoblastoma, median survival T/C
Assay: NCI In Vivo Anticancer Drug Screen. Data for tumor model Ependymoblastoma (intracerebral) in B6C3F1 mice
Conditions: endpoint: median survival time, higher = longer survival
Experimental: The antitumor activity of compounds was measured in mice bearing transplantable tumors. Survival or tumor size were measured and the results are expressed as the measurement made in the treated group (T) divided by the measurement made in the vehicle treated control group (C). The tumor model used in this assay is Ependymoblastoma (intracerebral) in B6C3F1 mice

[1] = dose: 8.0 mg/kg/injection, schedule: Q01DX005 (ip), vehicle: Klucel (hydroxypropylcellulose) (HPC)
[2] = dose: 8.0 mg/kg/injection, schedule: Q01DX005 (ip), vehicle: saline + alcohol
[3] = dose: 8.0 mg/kg/injection, schedule: Q01DX005 (ip), vehicle: saline with Tween-80
[4] = dose: 16.0 mg/kg/injection, schedule: Q01DX005 (ip), vehicle: Klucel (hydroxypropylcellulose) (HPC)
[5] = dose: 16.0 mg/kg/injection, schedule: Q01DX005 (ip), vehicle: saline + alcohol
[6] = dose: 32.0 mg/kg/injection, schedule: Q01DX005 (ip), vehicle: Klucel (hydroxypropylcellulose) (HPC)
[7] = dose: 32.0 mg/kg/injection, schedule: Q01DX005 (ip), vehicle: saline + alcohol
[8] = dose: 64.0 mg/kg/injection, schedule: Q01DX005 (ip), vehicle: Klucel (hydroxypropylcellulose) (HPC)
[9] = dose: 128.0 mg/kg/injection, schedule: Q01DX005 (ip), vehicle: Klucel (hydroxypropylcellulose) (HPC)
[10] = dose: 128.0 mg/kg/injection, schedule: Q01DX005 (ip), vehicle: saline + alcohol
[11] = dose: 25.0 mg/kg/injection, schedule: Q01DX005 (ip), vehicle: Klucel (hydroxypropylcellulose) (HPC)
[12] = dose: 50.0 mg/kg/injection, schedule: Q01DX005 (ip), vehicle: Klucel (hydroxypropylcellulose) (HPC)
[13] = dose: 50.0 mg/kg/injection, schedule: Q01DX005 (ip), vehicle: saline
[14] = dose: 100.0 mg/kg/injection, schedule: Q01DX005 (ip), vehicle: saline with Tween-80
[15] = dose: 100.0 mg/kg/injection, schedule: Q01DX005 (ip), vehicle: saline
[16] = dose: 200.0 mg/kg/injection, schedule: Q01DX005 (ip), vehicle: saline
[17] = dose: 4.0 mg/kg/injection, schedule: Q01DX005 (ip), vehicle: saline with Tween-80

## CCCCCC(=O)O[C@]1(C(C)=O)CC[C@H]2[C@@H]3CCC4=CC(=O)CC[C@]4(C)[C@H]3CC[C@@]21C
[1]
  T/C: 105 % of control
[2]
  T/C: 96 % of control
[3]
  T/C: 95 % of control and 105 % of control
[4]
  T/C: 106 % of control
[5]
  T/C: 106 % of control
dose: 16.0 mg/kg/injection, schedule: Q01DX005 (ip), vehicle: saline with Tween-80
  T/C: 115 % of control and 89 % of control
[6]
  T/C: 87 % of control
[7]
  T/C: 102 % of control
dose: 32.0 mg/kg/injection, schedule: Q01DX005 (ip), vehicle: saline with Tween-80
  T/C: 98 % of control and 117 % of control
[8]
  T/C: 101 % of control
dose: 64.0 mg/kg/injection, schedule: Q01DX005 (ip), vehicle: saline + alcohol
  T/C: 104 % of control
dose: 64.0 mg/kg/injection, schedule: Q01DX005 (ip), vehicle: saline with Tween-80
  T/C: 99 % of control and 105 % of control
[9]
  T/C: 86 % of control
[10]
  T/C: 102 % of control
dose: 128.0 mg/kg/injection, schedule: Q01DX005 (ip), vehicle: saline with Tween-80
  T/C: 104 % of control and 107 % of control
dose: 256.0 mg/kg/injection, schedule: Q01DX005 (ip), vehicle: Klucel (hydroxypropylcellulose) (HPC)
  T/C: 95 % of control
dose: 256.0 mg/kg/injection, schedule: Q01DX005 (ip), vehicle: saline + alcohol
  T/C: 102 % of control
dose: 256.0 mg/kg/injection, schedule: Q01DX005 (ip), vehicle: saline with Tween-80
  T/C: 98 % of control and 107 % of control
dose: 512.0 mg/kg/injection, schedule: Q01DX005 (ip), vehicle: Klucel (hydroxypropylcellulose) (HPC)
  T/C: 95 % of control
dose: 512.0 mg/kg/injection, schedule: Q01DX005 (ip), vehicle: saline + alcohol
  T/C: 113 % of control
dose: 512.0 mg/kg/injection, schedule: Q01DX005 (ip), vehicle: saline with Tween-80
  T/C: 95 % of control and 105 % of control

## CC(=O)CC(c1ccccc1)c1c(O)c2ccccc2oc1=O (centres undefined)
dose: 0.05 mg/kg/injection, schedule: Q01DX005 (ip), vehicle: Klucel (hydroxypropylcellulose) (HPC)
  T/C: 113 % of control
dose: 0.1 mg/kg/injection, schedule: Q01DX005 (ip), vehicle: Klucel (hydroxypropylcellulose) (HPC)
  T/C: 100 % of control and 108 % of control
dose: 0.2 mg/kg/injection, schedule: Q01DX005 (ip), vehicle: Klucel (hydroxypropylcellulose) (HPC)
  T/C: 105 % of control and 110 % of control
dose: 0.4 mg/kg/injection, schedule: Q01DX005 (ip), vehicle: Klucel (hydroxypropylcellulose) (HPC)
  T/C: 98 % of control and 104 % of control
dose: 0.8 mg/kg/injection, schedule: Q01DX005 (ip), vehicle: Klucel (hydroxypropylcellulose) (HPC)
  T/C: 101 % of control and 88 % of control
dose: 1.6 mg/kg/injection, schedule: Q01DX005 (ip), vehicle: Klucel (hydroxypropylcellulose) (HPC)
  T/C: 98 % of control

## NC(=O)c1ncn(C2OC(CO)C(O)C2O)c1O (centres undefined)
[11]
  T/C: 92 % of control
[12]
  T/C: 101 % of control and 115 % of control
dose: 100.0 mg/kg/injection, schedule: Q01DX005 (ip), vehicle: Klucel (hydroxypropylcellulose) (HPC)
  T/C: 96 % of control and 101 % of control
dose: 200.0 mg/kg/injection, schedule: Q01DX005 (ip), vehicle: Klucel (hydroxypropylcellulose) (HPC)
  T/C: 105 % of control and 115 % of control
dose: 400.0 mg/kg/injection, schedule: Q01DX005 (ip), vehicle: Klucel (hydroxypropylcellulose) (HPC)
  T/C: 111 % of control

## CN(C)c1nc(N(C)C)nc(N(C)C)n1
[13]
  T/C: 94 % of control
[14]
  T/C: 100 % of control
[15]
  T/C: 94 % of control
dose: 200.0 mg/kg/injection, schedule: Q01DX001 (ip), vehicle: saline with Tween-80
  T/C: 92 % of control
dose: 200.0 mg/kg/injection, schedule: Q01DX001 (ip), vehicle: saline
  T/C: 96 % of control and 99 % of control and 104 % of control
dose: 200.0 mg/kg/injection, schedule: Q01DX005 (ip), vehicle: saline with Tween-80
  T/C: 99 % of control
[16]
  T/C: 101 % of control
dose: 400.0 mg/kg/injection, schedule: Q01DX001 (ip), vehicle: saline with Tween-80
  T/C: 100 % of control
dose: 400.0 mg/kg/injection, schedule: Q01DX001 (ip), vehicle: saline
  T/C: 97 % of control and 107 % of control and 89 % of control
dose: 400.0 mg/kg/injection, schedule: Q01DX005 (ip), vehicle: saline with Tween-80
  T/C: 87 % of control
dose: 800.0 mg/kg/injection, schedule: Q01DX001 (ip), vehicle: saline with Tween-80
  T/C: 100 % of control
dose: 800.0 mg/kg/injection, schedule: Q01DX001 (ip), vehicle: saline
  T/C: 92 % of control (2×) and 96 % of control
dose: 1600.0 mg/kg/injection, schedule: Q01DX001 (ip), vehicle: saline
  T/C: 106 % of control

## O=C(O)C1(C(=O)O)CCC1.[NH2-].[NH2-].[Pt+2]
dose: 16.0 mg/kg/injection, schedule: Q01DX005 (ip), vehicle: dextrose
  T/C: 110 % of control and 118 % of control
dose: 32.0 mg/kg/injection, schedule: Q01DX005 (ip), vehicle: dextrose
  T/C: 119 % of control and 120 % of control

## NCCOCC(N)C(=O)O (centres undefined)
dose: 62.5 mg/kg/injection, schedule: Q01DX005 (ip), vehicle: saline
  T/C: 93 % of control
dose: 125.0 mg/kg/injection, schedule: Q01DX005 (ip), vehicle: saline
  T/C: 95 % of control
dose: 250.0 mg/kg/injection, schedule: Q01DX005 (ip), vehicle: saline
  T/C: 98 % of control
dose: 500.0 mg/kg/injection, schedule: Q01DX005 (ip), vehicle: saline
  T/C: 103 % of control

## Nc1n[nH]c(N)n1
dose: 128.0 mg/kg/injection, schedule: Q01DX005 (ip), vehicle: saline
  T/C: 93 % of control and 88 % of control
dose: 256.0 mg/kg/injection, schedule: Q01DX005 (ip), vehicle: saline
  T/C: 95 % of control and 100 % of control
dose: 512.0 mg/kg/injection, schedule: Q01DX005 (ip), vehicle: saline
  T/C: 92 % of control and 103 % of control
dose: 1024.0 mg/kg/injection, schedule: Q01DX005 (ip), vehicle: saline
  T/C: 118 % of control and 87 % of control

## COc1c(C)c2c(c(O)c1C/C=C(\C)CCC(=O)O)C(=O)OC2
dose: 12.5 mg/kg/injection, schedule: Q01DX005 (ip), vehicle: saline
  T/C: 101 % of control
dose: 25.0 mg/kg/injection, schedule: Q01DX005 (ip), vehicle: saline
  T/C: 105 % of control
[13]
  T/C: 100 % of control
[15]
  T/C: 98 % of control
[16]
  T/C: 102 % of control
dose: 400.0 mg/kg/injection, schedule: Q01DX005 (ip), vehicle: saline
  T/C: 98 % of control

## CC(C)=CCC1=C(O)c2ccccc2C(=O)C1=O
[6]
  T/C: 91 % of control
[8]
  T/C: 100 % of control
[9]
  T/C: 96 % of control

## CCCN(C)/N=N/c1nc[nH]c1C(N)=O
[17]
  T/C: 112 % of control
[3]
  T/C: 124 % of control

## Nc1nc(SCc2ccccc2Cl)c2ncn(C3OC(CO)C(O)C3O)c2n1 (centres undefined)
dose: 12.5 mg/kg/injection, schedule: Q01DX005 (ip), vehicle: Klucel (hydroxypropylcellulose) (HPC)
  T/C: 103 % of control and 104 % of control
[11]
  T/C: 98 % of control
[12]
  T/C: 110 % of control and 119 % of control

## CC(C)(C)N1CC1CNC(=O)C(=O)NCC1CN1C(C)(C)C (centres undefined)
dose: 1.5 mg/kg/injection, schedule: Q01DX005 (ip), vehicle: saline with Tween-80
  T/C: 96 % of control
dose: 3.0 mg/kg/injection, schedule: Q01DX005 (ip), vehicle: saline with Tween-80
  T/C: 102 % of control and 112 % of control
dose: 3.12 mg/kg/injection, schedule: Q01DX005 (ip), vehicle: saline with Tween-80
  T/C: 112 % of control
dose: 6.0 mg/kg/injection, schedule: Q01DX005 (ip), vehicle: saline with Tween-80
  T/C: 102 % of control and 114 % of control
dose: 6.25 mg/kg/injection, schedule: Q01DX005 (ip), vehicle: saline with Tween-80
  T/C: 116 % of control
dose: 12.0 mg/kg/injection, schedule: Q01DX005 (ip), vehicle: saline with Tween-80
  T/C: 115 % of control and 119 % of control

## COC(=O)c1cccc(N=NN(C)C)c1
[2]
  T/C: 98 % of control
[5]
  T/C: 108 % of control
[7]
  T/C: 123 % of control
[14]
  T/C: 114 % of control
[10]
  T/C: 162 % of control

## Nc1nc([Se])c2ncn(C3OC(CO)C(O)C3O)c2n1 (centres undefined)
[17]
  T/C: 113 % of control
dose: 4.0 mg/kg/injection, schedule: Q01DX005 (ip), vehicle: saline
  T/C: 102 % of control
[1]
  T/C: 106 % of control
[3]
  T/C: 109 % of control
dose: 8.0 mg/kg/injection, schedule: Q01DX005 (ip), vehicle: saline
  T/C: 95 % of control and 105 % of control and 114 % of control
[4]
  T/C: 106 % of control
dose: 16.0 mg/kg/injection, schedule: Q01DX005 (ip), vehicle: saline
  T/C: 102 % of control and 108 % of control
[6]
  T/C: 106 % of control
dose: 32.0 mg/kg/injection, schedule: Q01DX005 (ip), vehicle: saline
  T/C: 116 % of control and 121 % of control
